Test system: T1, LoTRE1
T1 construct: whole coding region incl. predicted signal peptide (1-25) by primers (ORF 1839 bp, 612 aa, 70833 Da); E. coli Rosetta (DE3), Ni-NTA; ~70 kDa
Assay: […],5-dinitrosalicylic acid assay of released glucose
Format: biochemical, Lissorhoptrus oryzophilus
Details: PBS, pH 7.0, 50 °C, 30 min; substrate 1-10 mmol/L (Km above tested range)

Km: 48.6 mM
Compound: OC[C@H]1O[C@H](O[C@H]2O[C@H](CO)[C@@H](O)[C@H](O)[C@H]2O)[C@H](O)[C@@H](O)[C@@H]1O [trehalose]
